Molecules are shown by their SMILES.

In one data set the target is CYP3A4 (Homo sapiens, UniProt P08684). Briefly: Inhibition of human CYP3A4 at 10 uM incubated for 60 mins by LC/MS/MS analysis relative to control. The format is ADME.
The nature of data set [1]: Lipophilicity, log D of compound at pH 7.4. The settings on record: buffer.
Data set [2] concerns the target Cholesterol 24-hydroxylase (Homo sapiens, UniProt Q9Y6A2). In words: biochemical.
Description: Inhibition of CH24H expressing human 293-F cells for 15 minutes using [14C] cholesterol as substrate and measured after 5 hrs by trypan blue staining based thin-layer chromatography
Another data set concerns the target T1, CYP2C8 (Homo sapiens, UniProt P10632).
T1 sequence (P10632 whole entry): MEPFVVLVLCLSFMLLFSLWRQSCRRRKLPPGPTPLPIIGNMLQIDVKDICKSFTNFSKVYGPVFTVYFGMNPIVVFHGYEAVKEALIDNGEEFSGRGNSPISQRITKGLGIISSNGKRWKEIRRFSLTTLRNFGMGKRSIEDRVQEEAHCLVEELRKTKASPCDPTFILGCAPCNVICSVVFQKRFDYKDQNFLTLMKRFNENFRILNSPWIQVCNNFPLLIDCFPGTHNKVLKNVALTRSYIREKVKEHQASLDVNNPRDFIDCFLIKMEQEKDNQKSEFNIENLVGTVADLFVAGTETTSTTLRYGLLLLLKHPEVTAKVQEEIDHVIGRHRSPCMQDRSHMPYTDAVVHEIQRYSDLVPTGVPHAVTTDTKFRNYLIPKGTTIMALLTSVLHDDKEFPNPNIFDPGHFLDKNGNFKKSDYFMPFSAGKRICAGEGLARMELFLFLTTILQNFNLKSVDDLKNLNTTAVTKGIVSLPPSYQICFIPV
In words: Inhibition of human CYP2C8 at 10 uM incubated for 60 mins by LC/MS/MS analysis relative to control. The format is ADME.

The target of the next data set is CYP2C9 (Homo sapiens, UniProt P11712). In words: Inhibition of human CYP2C9 at 10 uM incubated for 60 mins by LC/MS/MS analysis relative to control. The format is ADME.
The target in the next data set is CYP2D6 (Homo sapiens, UniProt P10635). Briefly: Inhibition of human CYP2D6 at 10 uM incubated for 60 mins by LC/MS/MS analysis relative to control. The data set is classed as ADME.
The nature of data set [3]: Plasma concentration in C57BL/6N mouse at 30 mg/kg, po and measured at 1 hr by LC/MS/MS analysis. The format is ADME, organism-based.
Data set [4] can be described thus: Drug concentration in brain of C57BL/6N mouse at 30 mg/kg,po and measured at 1 hrs by LC/MS/MS analysis. As to conditions: read-out: Ct. The data set is classed as ADME, organism-based.
In another data set the test system is Brain. In words: In vivo inhibition of […] CH24H in C57BL/6N mouse brain assessed as reduction in 24HC level at 30 mg/kg, po for 3 days by HPLC analysis. The format is functional. The settings on record: 72 h, time 3 day.

Sequence of Cholesterol 24-hydroxylase (Q9Y6A2 whole entry): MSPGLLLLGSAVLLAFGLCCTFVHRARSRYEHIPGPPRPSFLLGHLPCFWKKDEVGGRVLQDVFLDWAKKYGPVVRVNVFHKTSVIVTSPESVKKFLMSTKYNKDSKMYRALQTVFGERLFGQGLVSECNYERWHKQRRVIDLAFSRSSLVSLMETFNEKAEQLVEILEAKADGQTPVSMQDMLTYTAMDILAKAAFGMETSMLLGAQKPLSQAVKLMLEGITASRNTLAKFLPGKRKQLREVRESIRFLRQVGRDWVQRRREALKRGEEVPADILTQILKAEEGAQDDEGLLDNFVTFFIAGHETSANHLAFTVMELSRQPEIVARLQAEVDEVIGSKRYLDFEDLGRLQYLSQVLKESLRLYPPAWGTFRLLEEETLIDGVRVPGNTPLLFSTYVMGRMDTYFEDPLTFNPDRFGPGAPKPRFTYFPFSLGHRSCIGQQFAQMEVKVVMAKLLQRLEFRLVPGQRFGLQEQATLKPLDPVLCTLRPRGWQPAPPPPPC
Sequence of CYP3A4 (P08684 whole entry): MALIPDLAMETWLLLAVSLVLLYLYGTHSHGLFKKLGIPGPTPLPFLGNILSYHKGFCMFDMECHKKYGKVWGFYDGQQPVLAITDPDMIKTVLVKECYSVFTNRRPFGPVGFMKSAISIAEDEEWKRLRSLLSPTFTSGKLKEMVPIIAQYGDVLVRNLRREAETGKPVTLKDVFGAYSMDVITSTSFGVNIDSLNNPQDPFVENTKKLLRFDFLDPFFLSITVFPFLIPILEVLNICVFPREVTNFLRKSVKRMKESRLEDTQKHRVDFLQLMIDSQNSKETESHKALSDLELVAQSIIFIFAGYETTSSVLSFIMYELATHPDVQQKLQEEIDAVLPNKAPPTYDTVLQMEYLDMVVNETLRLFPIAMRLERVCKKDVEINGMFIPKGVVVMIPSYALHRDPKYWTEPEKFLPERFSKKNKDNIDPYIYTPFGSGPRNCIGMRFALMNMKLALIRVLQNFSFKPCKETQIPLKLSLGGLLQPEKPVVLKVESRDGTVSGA
Sequence of CYP2C9 (P11712 whole entry): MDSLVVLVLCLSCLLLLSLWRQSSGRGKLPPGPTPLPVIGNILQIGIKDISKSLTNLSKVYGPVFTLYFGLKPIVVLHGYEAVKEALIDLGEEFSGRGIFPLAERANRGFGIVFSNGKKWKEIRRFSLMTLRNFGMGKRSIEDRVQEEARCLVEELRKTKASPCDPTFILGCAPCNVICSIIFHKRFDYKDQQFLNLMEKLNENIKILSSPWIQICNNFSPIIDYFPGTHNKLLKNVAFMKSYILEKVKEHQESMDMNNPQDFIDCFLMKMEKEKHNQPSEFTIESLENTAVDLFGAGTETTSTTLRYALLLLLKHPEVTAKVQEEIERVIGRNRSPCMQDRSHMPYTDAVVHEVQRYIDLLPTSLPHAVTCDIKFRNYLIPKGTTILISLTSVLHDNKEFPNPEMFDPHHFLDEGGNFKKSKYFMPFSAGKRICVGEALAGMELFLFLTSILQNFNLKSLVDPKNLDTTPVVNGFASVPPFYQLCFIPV
Sequence of CYP2D6 (P10635 whole entry): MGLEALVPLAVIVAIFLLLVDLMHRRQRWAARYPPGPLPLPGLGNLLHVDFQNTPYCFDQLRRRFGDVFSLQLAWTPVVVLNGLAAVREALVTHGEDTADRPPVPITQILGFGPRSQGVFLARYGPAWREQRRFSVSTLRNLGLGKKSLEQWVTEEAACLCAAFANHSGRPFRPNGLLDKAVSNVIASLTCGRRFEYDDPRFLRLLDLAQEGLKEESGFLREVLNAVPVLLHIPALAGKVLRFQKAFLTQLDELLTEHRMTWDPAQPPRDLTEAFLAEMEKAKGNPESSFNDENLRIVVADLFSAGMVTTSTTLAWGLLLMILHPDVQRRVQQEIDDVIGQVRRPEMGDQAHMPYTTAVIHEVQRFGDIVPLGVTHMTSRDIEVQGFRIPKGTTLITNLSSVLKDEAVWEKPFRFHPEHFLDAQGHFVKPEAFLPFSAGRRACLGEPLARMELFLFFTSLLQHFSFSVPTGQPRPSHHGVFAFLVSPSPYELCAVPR

As to `CN(C)C(=O)C1CCN(c2cnccc2-n2cc(C3CC3)cn2)CC1`, the inhibition at 1 h, 10 µM on CYP3A4 was found to be 56%. Moreover, the logD in data set [1] was found to be 2.1. Besides, in [2], the IC50 is 12 nM.

Turning to `CCN(C)C(=O)C1CCN(c2cncnc2-c2ccccc2)CC1`, the inhibition at 1 h, 10 µM on CYP3A4 was determined as 35%. The logD in data set [1] was found to be 2.1. This compound also gave an IC50 in data set [2] of 14 nM.

As to `CN(C)C(=O)C1CCN(c2cnccc2-n2cccn2)CC1`, the inhibition at 1 h, 10 µM at CYP3A4 worked out at 1%. Moreover, the logD in data set [1] is 1.1. In addition, the IC50 in data set [2] was 48 nM.

`Cc1ccn(-c2ccncc2N2CCC(C(=O)N(C)C)CC2)n1` displayed an inhibition at 1 h, 10 µM on CYP3A4 of 5%. This compound came in with a logD in data set [1] of 1.5. This compound displayed an IC50 in data set [2] of 1100 nM.

Regarding `O=C(Nc1ccccc1)C1CCN(c2cncnc2-c2ccccc2)CC1`, the inhibition at 1 h, 10 µM against CYP3A4 was determined as 84%. Besides, the logD in [1] turned out to be 2.7. Further, in data set [2], the IC50 was 28 nM.

`O=C(NC1CC1)C1CCN(c2cncnc2-c2ccccc2)CC1` had an inhibition at 1 h, 10 µM at CYP3A4 of 50%. Moreover, the logD in data set [1] is 1.8. Moreover, the IC50 in data set [2] amounted to 44 nM.

On CYP3A4, `O=C(NC1CC1)C1CCN(c2cnccc2-c2ccccc2)CC1` came in with an inhibition at 1 h, 10 µM of 83%. In [1], this compound had a logD of 2.5. In [2], the midpoint of inhibition, the IC50, lay at 8.1 nM.

Compound `CN(C)C(=O)C1CCN(c2cnccc2-n2cc(Br)cn2)CC1` showed an inhibition at 1 h, 10 µM at CYP3A4 of 31%. The logD in [1] was determined as 2.1. This compound had an IC50 in data set [2] of 9.5 nM.

For `O=C(NC1CC1)N1CCC(c2cnccc2-c2ccccc2)CC1`, in data set [2], the IC50 came out at 950 nM.

`O=C(NC1CC1)c1ccc(-c2cnccc2-c2ccccc2)cc1` returned an IC50 in data set [2] of 74 nM.

On to `O=C(NC1CC1)N1CCN(c2cnccc2-c2ccccc2)CC1`, for which half-maximal inhibition in data set [2] (IC50) required 52 nM.

`O=C(NC1CC1)C1CCN(c2cnccc2-c2ccccn2)CC1`: the inhibition at 1 h, 10 µM against CYP3A4 was 29%. In data set [1], this compound came in with a log distribution coefficient (logD) of 1.3. This compound had an IC50 in [2] of 160 nM.

Regarding `Cc1cnc(-c2ccncc2N2CCC(C(=O)N(C)C)CC2)s1`, the inhibition at 1 h, 10 µM on CYP3A4 is 32%. In data set [1], this compound had a logD of 2. Besides, in [2], the IC50 came to 12 nM.

For `Cc1cnn(-c2ccncc2N2CCC(C(=O)N(C)C)CC2)c1`, the inhibition at 1 h, 10 µM at CYP3A4 turned out to be 21%; against CYP2C8, 2%; against CYP2C9, 19%; against CYP2D6, 3%. This compound also showed a logD in data set [1] of 1.6. Also, the concentration at 1 h was 179 µM in [3] and 0.102 µM in data set [4]. Also, the inhibition in vivo at 30 mg/kg in the data set with Brain was 26%. Also, the IC50 in data set [2] stood at 8.5 nM.

For the compound `CN(C)C(=O)C1CCN(c2cncnc2-c2ccc(F)cc2)CC1`, the inhibition at 1 h, 10 µM at CYP3A4 amounted to 37%. This compound also displayed a logD in data set [1] of 1.9. The compound further came in with a half-maximal inhibitory concentration (IC50) in [2] of 7.3 nM.

Turning to `S=C(NC1CCCCC1)N1CCC(c2cnc[nH]2)CC1` [THIOPERAMIDE], the midpoint of inhibition in data set [2], the IC50, lay at 430 nM.

Regarding `CN(C)C(=O)C1CCN(c2cnccc2-n2cc(Cl)cn2)CC1`, the inhibition at 1 h, 10 µM against CYP3A4 was 19%. Further, the IC50 in [2] worked out at 24 nM.

As to `CN(C)C(=O)C1CCN(c2cncnc2-c2ccccc2)CC1`, the inhibition at 1 h, 10 µM against CYP3A4 was 28%. Besides, the pH-dependent lipophilicity (logD) in data set [1] stood at 1.7. In data set [2], this compound registered an IC50 of 16 nM.

`CNC(=O)C1CCN(c2cncnc2-c2ccccc2)CC1` displayed an inhibition at 1 h, 10 µM at CYP3A4 of 31%. The same compound returned a logD in [1] of 1.4. Besides, the IC50 in data set [2] stood at 72 nM.

For `CN(C)C(=O)C1CCN(c2cnccc2-c2ccccn2)CC1`, on CYP3A4, the inhibition at 1 h, 10 µM turned out to be 11%. The logD in data set [1] was determined as 1.2. The compound also yielded an IC50 in data set [2] of 68 nM.

Consider `CCNC(=O)C1CCN(c2cncnc2-c2ccccc2)CC1`, for which the inhibition at 1 h, 10 µM against CYP3A4 amounted to 42%. This compound also gave a logD in [1] of 1.8. In data set [2], the IC50 was 58 nM.

`CN(C)C(=O)C1CCN(c2cnccc2-n2cc(C(F)(F)F)cn2)CC1` came in with an inhibition at 1 h, 10 µM at CYP3A4 of 47%. Besides, in data set [1], the logD turned out to be 2.1. Besides, in data set [2], it took 65 nM to reach half-maximal inhibition (IC50).

By inhibition is commonly meant the change of the read-out against control, counted positive when it falls. Low readings indicate a weak effect, high ones a strong effect. One may read the logD as lipophilicity at a set pH, counting ionised and neutral species. The term IC50 denotes the midpoint of a concentration-inhibition curve. Lower therefore signals greater potency. In general, inhibition in vivo refers to the share of the control response that was lost under treatment.
